{
  "source": "patent US7005453B1",
  "about": "“Use of hop acids to inhibit growth of Staphylococcus aureus and prevent toxic shock syndrome” (Miller Brewing Company, priority 1999, dated 2006)",
  "key": {"Lactobacillus species": {"system": "Lactobacillus species", "assay": "MIC assay using Lactobacillus species (vaginal isolates) in MRS broth, growth scored by turbidity", "assay_type": "cell-based", "settings": "for growth (turbidity score): MRS at pH 6.3, anaerobic 28° C., five days; for concentration as high as which Lactobacillus exhibited strong growth: Lactobacillus species tested", "protocol": "(§1) Minimal inhibitory concentration (MIC) assays of several hop compounds were conducted using a Staphylococcus aureus species and vaginal isolates Lactobacillus vaginalias, Lactobacillus crispatus, Lactobacillus gasseri, and Lactobacillus jensenii as test microorganisms. Lactobacillus assays were conducted in Lactobacillus MRS broth (Difco) tubes. A 0.1 ml aliquot of a 1% (w/w) solution of each hop acid in alcohol was added to a tube of sterile MRS broth to give a final concentration of 100 ppm of the hop. This solution was serially diluted in tubes with sterile MRS broth using a two-fold dilution series. A second dilution series prepared as above, but using 0.1 ml alcohol without hop acid, was used as a positive control of bacterial growth. Each tube was inoculated with a fresh culture (10^4 cells) of a Lactobacillus species in MRS broth. The cultures were incubated anaerobically in a CO2 incubator at 28° C. for five days. Growth was evaluated by visually assessing and scoring development of turbidity in the tube of broth."}, "Staphylococcus aureus": {"system": "Staphylococcus aureus", "assay": "MIC assay using Staphylococcus aureus in trypticase soy broth, growth scored by turbidity", "assay_type": "cell-based", "settings": "for growth (turbidity score): aerobic 37° C., three days; for minimum inhibitory concentration: S. aureus at pH 6.0", "protocol": "as §1\nThe MIC assays for Staphylococcus aureus were conducted in Difco trypticase soy broth (TSB) using the same serial dilution technique and the inoculum level as described above. The pH of the TSB was adjusted to pH7.0, pH 6.0, or pH5.0 using hydrochloric acid. The tubes were incubated aerobically at 37° C. for three days and growth was evaluated by visually assessing and scored the development of turbidity in the broth."}},
  "data": [
    {"substance": "tetrahydroiso alpha acids", "values": [
      {"measurement": "growth (turbidity score)", "setting": "Lactobacillus species; 0.2 ppm", "value": "+++ Growth"},
      {"measurement": "growth (turbidity score)", "setting": "Lactobacillus species; 0.39 ppm", "value": "+++ Growth"},
      {"measurement": "growth (turbidity score)", "setting": "Lactobacillus species; 0.78 ppm", "value": "+++ Growth"},
      {"measurement": "growth (turbidity score)", "setting": "Lactobacillus species; 1.56 ppm", "value": "+++ Growth"},
      {"measurement": "growth (turbidity score)", "setting": "Lactobacillus species; 3.125 ppm", "value": "+++ Growth"},
      {"measurement": "growth (turbidity score)", "setting": "Lactobacillus species; 6.25 ppm", "value": "+++ Growth"},
      {"measurement": "growth (turbidity score)", "setting": "Lactobacillus species; 12.5 ppm", "value": "++ Growth"},
      {"measurement": "growth (turbidity score)", "setting": "Lactobacillus species; 25 ppm", "value": "+/− Growth"},
      {"measurement": "growth (turbidity score)", "setting": "Lactobacillus species; 50 ppm", "value": "No growth"},
      {"measurement": "growth (turbidity score)", "setting": "Lactobacillus species; 100 ppm", "value": "No growth"},
      {"measurement": "concentration as high as which Lactobacillus exhibited strong growth", "setting": "Lactobacillus species", "value": 12.5, "unit": "ppm"},
      {"measurement": "growth (turbidity score)", "setting": "Staphylococcus aureus; 0.2 ppm, TSB at pH 5.0", "value": "No growth"},
      {"measurement": "growth (turbidity score)", "setting": "Staphylococcus aureus; 0.2 ppm, TSB at pH 6.0", "value": "++ Growth"},
      {"measurement": "growth (turbidity score)", "setting": "Staphylococcus aureus; 0.2 ppm, TSB at pH 7.0", "value": "+++ Growth"},
      {"measurement": "growth (turbidity score)", "setting": "Staphylococcus aureus; 0.39 ppm, TSB at pH 5.0", "value": "No growth"},
      {"measurement": "growth (turbidity score)", "setting": "Staphylococcus aureus; 0.39 ppm, TSB at pH 6.0", "value": "+/− Growth"},
      {"measurement": "growth (turbidity score)", "setting": "Staphylococcus aureus; 0.39 ppm, TSB at pH 7.0", "value": "++ Growth"},
      {"measurement": "growth (turbidity score)", "setting": "Staphylococcus aureus; 0.78 ppm, TSB at pH 5.0", "value": "No growth"},
      {"measurement": "growth (turbidity score)", "setting": "Staphylococcus aureus; 0.78 ppm, TSB at pH 6.0", "value": "No growth"},
      {"measurement": "growth (turbidity score)", "setting": "Staphylococcus aureus; 0.78 ppm, TSB at pH 7.0", "value": "+ Growth"},
      {"measurement": "growth (turbidity score)", "setting": "Staphylococcus aureus; 1.56 ppm, TSB at pH 5.0", "value": "No growth"},
      {"measurement": "growth (turbidity score)", "setting": "Staphylococcus aureus; 1.56 ppm, TSB at pH 6.0", "value": "No growth"},
      {"measurement": "growth (turbidity score)", "setting": "Staphylococcus aureus; 1.56 ppm, TSB at pH 7.0", "value": "+/− Growth"},
      {"measurement": "growth (turbidity score)", "setting": "Staphylococcus aureus; 3.125 ppm, TSB at pH 5.0", "value": "No growth"},
      {"measurement": "growth (turbidity score)", "setting": "Staphylococcus aureus; 3.125 ppm, TSB at pH 6.0", "value": "No growth"},
      {"measurement": "growth (turbidity score)", "setting": "Staphylococcus aureus; 3.125 ppm, TSB at pH 7.0", "value": "No growth"},
      {"measurement": "growth (turbidity score)", "setting": "Staphylococcus aureus; 6.25 ppm, TSB at pH 5.0", "value": "No growth"},
      {"measurement": "growth (turbidity score)", "setting": "Staphylococcus aureus; 6.25 ppm, TSB at pH 6.0", "value": "No growth"},
      {"measurement": "growth (turbidity score)", "setting": "Staphylococcus aureus; 6.25 ppm, TSB at pH 7.0", "value": "No growth"},
      {"measurement": "growth (turbidity score)", "setting": "Staphylococcus aureus; 12.5 ppm, TSB at pH 5.0", "value": "No growth"},
      {"measurement": "growth (turbidity score)", "setting": "Staphylococcus aureus; 12.5 ppm, TSB at pH 6.0", "value": "No growth"},
      {"measurement": "growth (turbidity score)", "setting": "Staphylococcus aureus; 12.5 ppm, TSB at pH 7.0", "value": "No growth"},
      {"measurement": "growth (turbidity score)", "setting": "Staphylococcus aureus; 25 ppm, TSB at pH 5.0", "value": "No growth"},
      {"measurement": "growth (turbidity score)", "setting": "Staphylococcus aureus; 25 ppm, TSB at pH 6.0", "value": "No growth"},
      {"measurement": "growth (turbidity score)", "setting": "Staphylococcus aureus; 25 ppm, TSB at pH 7.0", "value": "No growth"},
      {"measurement": "growth (turbidity score)", "setting": "Staphylococcus aureus; 50 ppm, TSB at pH 5.0", "value": "No growth"},
      {"measurement": "growth (turbidity score)", "setting": "Staphylococcus aureus; 50 ppm, TSB at pH 6.0", "value": "No growth"},
      {"measurement": "growth (turbidity score)", "setting": "Staphylococcus aureus; 50 ppm, TSB at pH 7.0", "value": "No growth"},
      {"measurement": "growth (turbidity score)", "setting": "Staphylococcus aureus; 100 ppm, TSB at pH 5.0", "value": "No growth"},
      {"measurement": "growth (turbidity score)", "setting": "Staphylococcus aureus; 100 ppm, TSB at pH 6.0", "value": "No growth"},
      {"measurement": "growth (turbidity score)", "setting": "Staphylococcus aureus; 100 ppm, TSB at pH 7.0", "value": "No growth"},
      {"measurement": "concentration as low as which S. aureus showed no to very weak growth", "setting": "Staphylococcus aureus", "value": 1.56, "unit": "ppm"},
      {"measurement": "minimum inhibitory concentration", "setting": "Staphylococcus aureus", "value": 0.78, "unit": "ppm"}
    ]},
    {"substance": "hexahydro beta acids", "values": [
      {"measurement": "growth (turbidity score)", "setting": "Lactobacillus species; 0.2 ppm", "value": "+++ Growth"},
      {"measurement": "growth (turbidity score)", "setting": "Lactobacillus species; 0.39 ppm", "value": "+++ Growth"},
      {"measurement": "growth (turbidity score)", "setting": "Lactobacillus species; 0.78 ppm", "value": "+++ Growth"},
      {"measurement": "growth (turbidity score)", "setting": "Lactobacillus species; 1.56 ppm", "value": "+++ Growth"},
      {"measurement": "growth (turbidity score)", "setting": "Lactobacillus species; 3.125 ppm", "value": "+++ Growth"},
      {"measurement": "growth (turbidity score)", "setting": "Lactobacillus species; 6.25 ppm", "value": "+++ Growth"},
      {"measurement": "growth (turbidity score)", "setting": "Lactobacillus species; 12.5 ppm", "value": "+++ Growth"},
      {"measurement": "growth (turbidity score)", "setting": "Lactobacillus species; 25 ppm", "value": "+/− Growth"},
      {"measurement": "growth (turbidity score)", "setting": "Lactobacillus species; 50 ppm", "value": "No growth"},
      {"measurement": "growth (turbidity score)", "setting": "Lactobacillus species; 100 ppm", "value": "No growth"},
      {"measurement": "concentration as high as which Lactobacillus exhibited strong growth", "setting": "Lactobacillus species", "value": 12.5, "unit": "ppm"},
      {"measurement": "growth (turbidity score)", "setting": "Staphylococcus aureus; 0.2 ppm, TSB at pH 5.0", "value": "No growth"},
      {"measurement": "growth (turbidity score)", "setting": "Staphylococcus aureus; 0.2 ppm, TSB at pH 6.0", "value": "+ Growth"},
      {"measurement": "growth (turbidity score)", "setting": "Staphylococcus aureus; 0.2 ppm, TSB at pH 7.0", "value": "+++ Growth"},
      {"measurement": "growth (turbidity score)", "setting": "Staphylococcus aureus; 0.39 ppm, TSB at pH 5.0", "value": "No growth"},
      {"measurement": "growth (turbidity score)", "setting": "Staphylococcus aureus; 0.39 ppm, TSB at pH 6.0", "value": "No growth"},
      {"measurement": "growth (turbidity score)", "setting": "Staphylococcus aureus; 0.39 ppm, TSB at pH 7.0", "value": "++ Growth"},
      {"measurement": "growth (turbidity score)", "setting": "Staphylococcus aureus; 0.78 ppm, TSB at pH 5.0", "value": "No growth"},
      {"measurement": "growth (turbidity score)", "setting": "Staphylococcus aureus; 0.78 ppm, TSB at pH 6.0", "value": "No growth"},
      {"measurement": "growth (turbidity score)", "setting": "Staphylococcus aureus; 0.78 ppm, TSB at pH 7.0", "value": "+ Growth"},
      {"measurement": "growth (turbidity score)", "setting": "Staphylococcus aureus; 1.56 ppm, TSB at pH 5.0", "value": "No growth"},
      {"measurement": "growth (turbidity score)", "setting": "Staphylococcus aureus; 1.56 ppm, TSB at pH 6.0", "value": "No growth"},
      {"measurement": "growth (turbidity score)", "setting": "Staphylococcus aureus; 1.56 ppm, TSB at pH 7.0", "value": "+/− Growth"},
      {"measurement": "growth (turbidity score)", "setting": "Staphylococcus aureus; 3.125 ppm, TSB at pH 5.0", "value": "No growth"},
      {"measurement": "growth (turbidity score)", "setting": "Staphylococcus aureus; 3.125 ppm, TSB at pH 6.0", "value": "No growth"},
      {"measurement": "growth (turbidity score)", "setting": "Staphylococcus aureus; 3.125 ppm, TSB at pH 7.0", "value": "No growth"},
      {"measurement": "growth (turbidity score)", "setting": "Staphylococcus aureus; 6.25 ppm, TSB at pH 5.0", "value": "No growth"},
      {"measurement": "growth (turbidity score)", "setting": "Staphylococcus aureus; 6.25 ppm, TSB at pH 6.0", "value": "No growth"},
      {"measurement": "growth (turbidity score)", "setting": "Staphylococcus aureus; 6.25 ppm, TSB at pH 7.0", "value": "No growth"},
      {"measurement": "growth (turbidity score)", "setting": "Staphylococcus aureus; 12.5 ppm, TSB at pH 5.0", "value": "No growth"},
      {"measurement": "growth (turbidity score)", "setting": "Staphylococcus aureus; 12.5 ppm, TSB at pH 6.0", "value": "No growth"},
      {"measurement": "growth (turbidity score)", "setting": "Staphylococcus aureus; 12.5 ppm, TSB at pH 7.0", "value": "No growth"},
      {"measurement": "growth (turbidity score)", "setting": "Staphylococcus aureus; 25 ppm, TSB at pH 5.0", "value": "No growth"},
      {"measurement": "growth (turbidity score)", "setting": "Staphylococcus aureus; 25 ppm, TSB at pH 6.0", "value": "No growth"},
      {"measurement": "growth (turbidity score)", "setting": "Staphylococcus aureus; 25 ppm, TSB at pH 7.0", "value": "No growth"},
      {"measurement": "growth (turbidity score)", "setting": "Staphylococcus aureus; 50 ppm, TSB at pH 5.0", "value": "No growth"},
      {"measurement": "growth (turbidity score)", "setting": "Staphylococcus aureus; 50 ppm, TSB at pH 6.0", "value": "No growth"},
      {"measurement": "growth (turbidity score)", "setting": "Staphylococcus aureus; 50 ppm, TSB at pH 7.0", "value": "No growth"},
      {"measurement": "growth (turbidity score)", "setting": "Staphylococcus aureus; 100 ppm, TSB at pH 5.0", "value": "No growth"},
      {"measurement": "growth (turbidity score)", "setting": "Staphylococcus aureus; 100 ppm, TSB at pH 6.0", "value": "No growth"},
      {"measurement": "growth (turbidity score)", "setting": "Staphylococcus aureus; 100 ppm, TSB at pH 7.0", "value": "No growth"},
      {"measurement": "concentration as low as which S. aureus showed no to very weak growth", "setting": "Staphylococcus aureus", "value": 1.56, "unit": "ppm"},
      {"measurement": "minimum inhibitory concentration", "setting": "Staphylococcus aureus", "value": 0.78, "unit": "ppm"}
    ]}
  ]
}
